From US20160046592A1, “PHARMACEUTICAL COMPOSITION FOR THE TREATMENT OF DIABETES” (Ajinomoto Co., Inc., priority 2013, published 2016)
Structures can show the parent of a compound that is named as a salt.

Target: T1, human GYS1 (glycogen synthase) (Homo sapiens, UniProt P13807)
T1 construct: made in house; host or cells: HEK293T
T1 sequence (P13807 1-737): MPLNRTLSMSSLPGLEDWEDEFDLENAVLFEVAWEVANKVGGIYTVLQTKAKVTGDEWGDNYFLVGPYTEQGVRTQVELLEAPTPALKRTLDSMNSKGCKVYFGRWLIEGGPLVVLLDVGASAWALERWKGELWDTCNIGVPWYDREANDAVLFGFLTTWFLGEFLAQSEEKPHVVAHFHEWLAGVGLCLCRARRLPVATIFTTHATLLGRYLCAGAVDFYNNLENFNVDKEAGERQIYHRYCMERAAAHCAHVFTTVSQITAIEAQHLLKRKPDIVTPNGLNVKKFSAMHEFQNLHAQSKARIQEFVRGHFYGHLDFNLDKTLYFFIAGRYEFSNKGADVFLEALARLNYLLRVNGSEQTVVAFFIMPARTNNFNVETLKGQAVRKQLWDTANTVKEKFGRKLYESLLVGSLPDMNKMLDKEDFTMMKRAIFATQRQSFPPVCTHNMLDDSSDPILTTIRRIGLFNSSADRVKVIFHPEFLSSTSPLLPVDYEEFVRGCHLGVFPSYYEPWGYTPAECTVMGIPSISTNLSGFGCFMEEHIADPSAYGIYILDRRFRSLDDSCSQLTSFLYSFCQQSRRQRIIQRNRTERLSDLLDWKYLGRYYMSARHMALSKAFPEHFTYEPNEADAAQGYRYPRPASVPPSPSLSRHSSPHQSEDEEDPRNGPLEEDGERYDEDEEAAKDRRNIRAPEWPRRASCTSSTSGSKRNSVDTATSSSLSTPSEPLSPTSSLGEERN
Test: Measurement of glycogen synthase activity
Format: biochemical
Conditions: concentration causing 50% increase in relative activity; 100% = compound of Example 1 of WO/2011/058154 at 10 μM; 10 mM Glucose-6-phosphate; 37° C. for 25 minutes (Examples 1 to 61 and 67 to 82) or 20 minutes (Examples 62 to 66); absorbance at 340 nm
Procedure, shortened: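 Human GYS1 from transfected HEK293T cells (re-dissolved 16000×g pellet) was reacted at 37 °C for 25 or 20 min in glycylglycine pH 7.3 with glucose-6-phosphate, glycogen and UDP-glucose. PK/LDH-coupled NADH read-out at 340 nm; EC50 from activity relative to a reference activator at 10 μM final (100%).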

Row | EC50 [nM] | Structure (SMILES)
1 | 14 | CSc1cc(F)c(F)cc1-c1ccc(OCc2cccc(C(=O)N(CCCN(C)C)CC(=O)O)c2)cc1 [Example 26, 2-[[3-[[4-(4,5-Difluoro-2-methylsulfanyl-phenyl)phenoxy]methyl]benzoyl]-[3-(dimethylamino)propyl]amino]acetic Acid Trifluoroacetate]
2 | 15 | CN(C)CCN(CC(=O)O)C(=O)c1cccc(COc2ccc(-c3cc(F)c(F)c4ccoc34)cc2)c1 [Example 13, 2-[[3-[[4-(4,5-Difluorobenzofuran-7-yl)phenoxy]methyl]benzoyl]-(2-dimethylaminoethyl)amino]acetic Acid Trifluoroacetate]
3 | 17 | CSc1cc(F)c(F)cc1-c1ccc(OCc2cccc(C(=O)N(CC(=O)O)Cc3cscn3)c2)cc1 [Example 71, 2-[[3-[[4-(4,5-Difluoro-2-methylsulfanyl-phenyl)phenoxy]methyl]benzoyl]-(thiazol-4-ylmethyl)amino]acetic Acid]
4 | 21 | CSc1cc(F)c(F)cc1-c1ccc(OCc2cccc(C(=O)N(CC(=O)O)Cc3cccnc3)c2)cc1 [Example 39, 2-[[3-[[4-(4,5-Difluoro-2-methylsulfanyl-phenyl)phenoxy]methyl]benzoyl]-(3-pyridylmethyl)amino]acetic Acid Trifluoroacetate]
5 | 11 | CCN(CC)CCN(CC(=O)O)C(=O)c1cccc(COc2ccc(-c3cc(F)c(F)cc3SC)cc2)c1 [Example 24, 2-[2-Diethylaminoethyl-[3-[[4-(4,5-difluoro-2-methylsulfanyl-phenyl)phenoxy]methyl]benzoyl]amino]acetic Acid Trifluoroacetate]
6 | 16 | O=C(O)[C@@H]1[C@H](O)CCN1C(=O)c1cccc(COc2ccc(-c3cc(F)c(F)c4ccoc34)cc2)c1 [Example 3, (2S,3R)-1-[3-[[4-(4,5-Difluorobenzofuran-7-yl)phenoxy]methyl]benzoyl]-3-hydroxy-pyrrolidine-2-carboxylic Acid]
7 | 11 | CSc1cc(F)c(F)cc1-c1ccc(OCc2cccc(C(=O)N3C(CC#N)CC[C@H]3C(=O)O)c2)cc1 (stereo partly drawn) [Example 72, (2S)-5-(Cyanomethyl)-1-[3-[[4-(4,5-difluoro-2-methylsulfanyl-phenyl)phenoxy]methyl]benzoyl]pyrrolidine-2-carboxylic Acid]
8 | 11 | CSc1cc(F)c(F)cc1-c1ccc(OCc2cccc(C(=O)N(CCC#N)CC(=O)O)c2)cc1 [Example 7, 2-[2-Cyanoethyl-[3-[[4-(4,5-difluoro-2-methylsulfanyl-phenyl)phenoxy]methyl]benzoyl]amino]acetic Acid]
9 | 13 | CSc1cc(F)c(F)cc1-c1ccc(OCc2cccc(C(=O)N(CC(=O)O)Cc3coc(C)n3)c2)cc1 [Example 67, 2-[[3-[[4-(4,5-Difluoro-2-methylsulfanyl-phenyl)phenoxy]methyl]benzoyl]-[(2-methyloxazol-4-yl)methyl]amino]acetic Acid]
10 | 17 | COC(C)(C)CN(CC(=O)O)C(=O)c1cccc(COc2ccc(-c3cc(F)c(F)cc3SC)cc2)c1 [Example 23, 2-[[3-[[4-(4,5-Difluoro-2-methylsulfanyl-phenyl)phenoxy]methyl]benzoyl]-(2-methoxy-2-methyl-propyl)amino]acetic Acid]
11 | 16 | O=C(O)CN(CC1CCNCC1)C(=O)c1cccc(COc2ccc(-c3cc(F)c(F)c4ccoc34)cc2)c1 [Example 12, 2-[[3-[[4-(4,5-Difluorobenzofuran-7-yl)phenoxy]methyl]benzoyl]-(4-piperidylmethyl)amino]acetic Acid Trifluoroacetate]
12 | 13 | CNC(=O)CN(CC(=O)O)C(=O)c1cccc(COc2ccc(-c3cc(F)c(F)c4ccoc34)cc2)c1 [Example 15, 2-[[3-[[4-(4,5-Difluorobenzofuran-7-yl)phenoxy]methyl]benzoyl]-[2-(methylamino)-2-oxo-ethyl]amino]acetic Acid]
13 | 21 | CSc1cc(F)c(F)cc1-c1ccc(OCc2cccc(C(=O)N(CCn3cncn3)CC(=O)O)c2)cc1 [Example 70, 2-[[3-[[4-(4,5-Difluoro-2-methylsulfanyl-phenyl)phenoxy]methyl]benzoyl]-[2-(1,2,4-triazol-1-yl)ethyl]amino]acetic Acid]
14 | 8 | CSc1cc(F)c(F)cc1-c1ccc(OCc2cccc(C(=O)N(CC(=O)O)Cc3cn(C)cn3)c2)cc1 [Example 74, 2-[[3-[[4-(4,5-Difluoro-2-methylsulfanyl-phenyl)phenoxy]methyl]benzoyl]-[(1-methylimidazol-4-yl)methyl]amino]acetic Acid]
15 | 24 | CSc1cc(F)c(F)cc1-c1ccc(OCc2cccc(C(=O)N(CCN3CCCC3)CC(=O)O)c2)cc1 [Example 40, 2-[[3-[[4-(4,5-Difluoro-2-methylsulfanyl-phenyl)phenoxy]methyl]benzoyl]-(2-pyrrolidin-1-ylethyl)amino]acetic Acid Trifluoroacetate]
16 | 13 | CSc1cc(F)c(F)cc1-c1ccc(OCc2cccc(C(=O)N(CC(=O)O)[C@@H](C)C(N)=O)c2)cc1 [Example 22, 2-[[(1S)-2-Amino-1-methyl-2-oxo-ethyl]-[3-[[4-(4,5-difluoro-2-methylsulfanyl-phenyl)phenoxy]methyl]benzoyl]amino]acetic Acid]
17 | 11 | CSc1cc(F)c(F)cc1-c1ccc(OCc2cccc(C(=O)N(CCc3noc(C)n3)CC(=O)O)c2)cc1 [Example 60, 2-[[3-[[4-(4,5-Difluoro-2-methylsulfanyl-phenyl)phenoxy]methyl]benzoyl]-[2-(5-methyl-1,2,4-oxadiazol-3-yl)ethyl]amino]acetic Acid]
18 | 4.3 | O=C(O)[C@@H]1[C@@H](O)CCN1C(=O)c1cccc(COc2ccc(-c3cc(F)c(F)c4ccoc34)cc2)c1 [Example 2, (2S,3S)-1-[3-[[4-(4,5-Difluorobenzofuran-7-yl)phenoxy]methyl]benzoyl]-3-hydroxy-pyrrolidine-2-carboxylic Acid]
19 | 22 | CSc1cc(F)c(F)cc1-c1ccc(OCc2cccc(C(=O)N3[C@@H](CO)CC[C@H]3C(=O)O)c2)cc1 [Example 64, (2S,5R)-1-[3-[[4-(4,5-Difluoro-2-methylsulfanyl-phenyl)phenoxy]methyl]benzoyl]-5-(hydroxymethyl)pyrrolidine-2-carboxylic Acid]
20 | 17 | COCCN(CC(=O)O)C(=O)c1cccc(COc2ccc(-c3cc(F)c(F)cc3SC)cc2)c1 [Example 6, 2-[[3-[[4-(4,5-Difluoro-2-methylsulfanyl-phenyl)phenoxy]methyl]benzoyl]-(2-methoxyethyl)amino]acetic Acid]
21 | 21 | CSc1cc(F)c(F)cc1-c1ccc(OCc2cccc(C(=O)N(CC(=O)O)C3CCNCC3)c2)cc1 [Example 36, 2-[[3-[[4-(4,5-Difluoro-2-methylsulfanyl-phenyl)phenoxy]methyl]benzoyl]-(4-piperidyl)amino]acetic Acid Trifluoroacetate]
22 | 22 | NC(=O)C1CC[C@@H](C(=O)O)N1C(=O)c1cccc(COc2ccc(-c3cc(F)c(F)c4ccoc34)cc2)c1 (single isomer, unassigned) [Example 76, (2S,5S) or (2S,5R)-5-Carbamoyl-1-[3-[[4-(4,5-difluorobenzofuran-7-yl)phenoxy]methyl]benzoyl]pyrrolidine-2-carboxylic Acid]
23 | 16 | CSc1cc(F)c(F)cc1-c1ccc(OCc2cccc(C(=O)N(CCS(=O)(=O)N(C)C)CC(=O)O)c2)cc1 [Example 59, 2-[[3-[[4-(4,5-Difluoro-2-methylsulfanyl-phenyl)phenoxy]methyl]benzoyl]-[2-(dimethylsulfamoyl)ethyl]amino]acetic Acid]
